Source: patent US11702400B2, “Salt types, crystal forms, and preparation methods for benzopyrazole compounds as RHO kinase inhibitors” (MEDSHINE DISCOVERY INC., priority 2019, dated 2023)

Assay: Pharmacokinetic study of the crystal form A of the compound of formula (II-1) in SD rats
Type: in vivo
Protocol: Experimental Purpose: To Study the Pharmacokinetics of the Compounds in SD Rats
Experimental Materials: SD Rats (12, Half Male and Half Female)
Experimental procedure: The pharmacokinetic characteristics of the compounds were tested in rodents after intravenous (IV) and oral (PO) administration using standard protocols. The candidate compounds were prepared into 0.5 mg/mL and 1 mg/mL clarified solutions and administrated to rats for single intravenous injection and oral administration. The solvent for both intravenous and oral administration was 5% DMSO/95% (10% hydroxypropyl β-cyclodextrin) aqueous solution. 12 SD rats were used in this project, and 6 rats (half male and half female) were administered intravenously at a dose of 1 mg/kg and plasma samples were collected at 0.0833, 0.25, 0.5, 1, 2, 4, 8, 12, and 24 h after administration, and the other 6 rats (half male and half female) were administered orally by gavage at a dose of 10 mg/kg and plasma samples were collected at 0.25, 0.5, 1, 2, 4, 8, 12 and 24 h after administration. 15 μL of plasma sample was added to a 96-well plate, and 300 μL of internal standard working solution (MeOH (containing 1.00 ng/mL Verapamil and 0.1% formic acid (FA)): ACN (v:v, 50:50) solution) was added to precipitate the proteins, the 96-well plate was shaken for 15 min, followed by centrifugation at 4° C., 3220 g for 15 min. 150 μL of supernatant was placed in a new 96-well plate with 150 μL of aqueous solution containing 0.1% formic acid (FA) and shaken for 10 min, and then centrifuged at 4° C., 3220 g for 5 min. The samples were directly injected, and the plasma drug concentration was quantitatively analyzed by LC-MS/MS analysis method, and pharmacokinetic parameters were calculated, such as peak concentration (Cmax), clearance rate (CL), half-life (T1/2), […] (Vdss), area under the drug-time curve (AUC0-last), bioavailability (F), etc.

- Clearance rate CL (SD rats, IV 1 mg/kg): 22.4 mL/min/kg
- Half-life T1/2 (IV) (SD rats, IV 1 mg/kg): 4.93 h
- Tissue distribution Vdss (SD rats, IV 1 mg/kg): 7.39 L/kg
- Bioavailability F (SD rats, IV 1 mg/kg, PO 10 mg/kg): 17.8%
- Area under drug-time curve AUC0-last PO (SD rats, PO 10 mg/kg): 3.69 µM·h
- Cmax (SD rats, half male and half female, PO 10 mg/kg, read-out: Peak concentration Cmax): 519 nM
- pharmacokinetic properties (conclusion in words) (rats): good pharmacokinetic properties
SMILES: COc1cccc(C(CN)NC(=O)c2cc(-c3ccc4[nH]nc(C)c4c3)ccn2)c1.Cl.Cl (stereo not shown)
